Test results published in patent US8017350B2, “Glimepiride- and insulin-induced glycosylphosphatidylinositol-specific phospholipase C regulation” (Sanofi-Aventis Deutschland GmbH, priority 2004, dated 2011).

Legend:
[1] = tested on: rat adipocyte GPI-PLC; assay: adipocyte GPI-PLC assay (plasma membranes or hc/lcDIGs, AChE substrate, TX-114 partitioning); assay type: biochemical
Description: GPI-PLD (rat serum) was assayed according to “Hari et al. (1997) Biochim. Biophys. Acta 1355: 293-302” by incubation with 10 μl of human placental aP solution (100 U/ml in 10 mM Hepes/NaOH, pH 7.0, 150 mM NaCl) in 100 μl of 200 mM Tris/maleate (pH 7.0) and 1% Nonidet P-40 for 10 min at 37° C. and subsequent termination of the reaction by addition of 0.4 ml of ice-cold stop buffer (10 mM Hepes/NaOH, pH 7.0, 150 mM NaCl, 0.1 mM MgCl2 and 0.01 mM zinc acetate). GPI-PLC (T. brucei) was assayed as described in “Mensa-Wilmot et al. (1995) Methods Enzymol. 250: 641-655” by incubation with 5 μl of human placental aP solution (see above) in 50 μl of 50 mM Tris/HCl (pH 8.0), 0.25% Nonidet P-40 and 5 mM EDTA for 30 min at 37° C. and subsequent termination of the reaction by addition of 0.45 ml of stop buffer. PI-PLC (B. cereus) and adipocyte GPI-PLC (5-25 μg plasma membranes or hc/lcDIGs) were assayed by incubation with 10 μl of bovine erythrocyte acetylcholinesterase (AChE) solution (12 U/ml in 10 mM Tris/HCl, pH 7.4, 144 mM NaCl, 0.1% TX-100) in 100 μl of 20 mM Hepes/KOH (pH 7.8), 144 mM NaCl, 0.1% TX-100, 0.2 mM MgCl2 for 1 h at 25° C. and subsequent termination by adding 5 μl of glacial acetic acid and then 0.4 ml of 10 mM Tris/HCl (pH 7.4), 144 mM NaCl. Each reaction mixture was subjected to TX-114 partitioning (see below).
Pelleted hc/lcDIGs (10-50 μg protein) or (G)PI-PLC reaction mixtures (0.5 ml) were separated into amphiphilic and hydrophilic proteins using partitioning between TX-114-enriched and depleted phases according to “Bordier, C., (1981) J. Biol, Chem. […]” by suspending in 1 ml of ice-cold TX-114 (1%), 25 mM Tris/HCl (pH 7.4), 144 mM NaCl or mixing with 0.5 ml of ice-cold TX-114 (2%), respectively. After incubation for 1 h on ice, the mixture was layered onto a cushion of 0.4 ml of 0.25 M sucrose and 25 mM Tris/HCl (pH 7.4) on ice. Phase separation was induced by warming up to 37° C. and subsequent centrifugation (10,000×g, 1 min). After re-extraction of the lower TX-114-enriched phase, aliquots of the pooled upper TX-114-depleted phase were measured for 5′-Nuc, aP and AChE activity or precipitated (15 polyethylene glycol 4000) for SDS-PAGE analysis.
Table 1: GPI-PLC of hcDIGs from rat adipocytes, GPI-PLC from T. brucei and PI-PLC from B. cereus were incubated with solubilized and partially purified bovine erythrocyte AChE or human placental aP in the absence or presence of increasing concentrations (0.05 μM-1 mM) of the inhibitors indicated under appropriate conditions (see Materials and Methods). Cleavage rate was calculated from the amount of hydrophilic AChE and aP activity recovered with the TX-114-depleted phase upon TX-114 partitioning. […]

[2] = molecular target: phospholipase A2 (honey bee venom) (Apis mellifera, UniProt P00630); assay type: biochemical; details: 50 μM
Sequence of phospholipase A2 (honey bee venom) (P00630 34-167 limits assumed): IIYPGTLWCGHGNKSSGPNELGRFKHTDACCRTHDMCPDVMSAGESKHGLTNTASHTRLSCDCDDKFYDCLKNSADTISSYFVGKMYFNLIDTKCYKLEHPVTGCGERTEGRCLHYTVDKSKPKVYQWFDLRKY

[3] = tested on: isolated rat adipocytes; assay: isoproterenol-induced lipolysis (glycerol release); assay type: cell-based
Description: Electroporation was performed as described in “Müller, G. et al., (2000) Mol. Cell. Biol. 20: 4708-4723”. Lipolysis was determined as release of glycerol or fluorescent NBD-FA from prelabeled and isoproterenol-stimulated adipocytes as described in “Müller, G. et al., (2003) Biochimie 85: 1245-1256”. Gce1 was detected by photolabeling of solubilized plasma membranes or hc/lcDIGs (10-50 μg protein) with 8-N3—[^32P]cAMP and subsequent phosphorimaging as described in “Müller, G. et al., (1994) Biochemistry 33: 12149-12159”. 5′-Nuc, aP and AChE activities were measured according to “Eliakim, R. et al., (1990) Biochim. Biophys. Acta 1355: 293-302”. Protein was determined using the BCA protein determination kit from Pierce (Rockford, Ill.) and BSA as calibration standard. SDS-PAGE was performed using precast gels (Novex, San Diego, Calif.; 10% Bis-Tris resolving gel, morpholinopropanesulfonic acid-SDS running buffer). Lumiimages were evaluated on a LumiImager using LumiImager software (Roche Diagnostics). Phosphor- and fluorescence images were processed and quantified using the Storm 860 PhosphorImager system (Molecular Dynamics, Gelsenkirchen, Germany). Figures were constructed using the ADOBE PHOTOSHOP software (Adobe Systems, Mountain View, Calif.).
FIG. 8: Effect of GPI-2350 on the glimepiride/insulin-induced metabolic activity. […]

CCCCCCCCCCCCP1(=O)O[C@@H]2[C@H](O)[C@@H](O)[C@H](O)[C@@H](O)[C@@H]2O1 (some centres unmarked) [GPI-2350, myo-inositol-1,2-cyclo-dodecylphosphonic acid]
IC50 ([1]; GPI-PLC of hcDIGs from rat adipocytes, inhibitor 0.05 μM-1 mM): 0.2 to 0.5 µM | lipolytic cleavage of AChE after washout ([1]; hcDIGs treated with 50 μM, reisolated, extensively washed, incubated without inhibitor): only low lipolytic cleavage | effect on PLA2 [2]: not significantly affected | effect on insulin inhibition of lipolysis [3]: only marginally reduced | effect on inhibition of lipolysis in response to glimepiride ([3]; 50 μM): almost complete blockade
